Test results as given in patent publication US10391137B2, “Platelet-derived growth factor-BB production promotor, and mesenchymal stem cell production accelerator, stem cell stabilizer and dermal regenerator comprising the same” (Shiseido Company, Ltd., priority 2011, dated 2019).

Tested on: PDGF-B gene expression in human vascular endothelial cells HUVEC
Experiment: Evaluation of PDGF-BB production-promoting effect in vascular endothelial cells (PDGF-B mRNA, quantitative RT-PCR)
Assay type: cell-based
Details: 10 ppm in medium, cultured 2 days, PDGF-BB mRNA vs. solvent control, G3PDH internal standard
Procedure: Human vascular endothelial cells HUVEC were subcultured with EGM-2 medium (Sanko Junyaku Co., Ltd.), and cells of the 4th subculture were suspended in VEGF-A-free Humedia-EG2 medium (Kurabo Industries, Ltd.) and seeded in a collagen-coated 24-well multiplate (Asahi Glass Co., Ltd.) at a 20,000 cell ratio, and culturing was conducted in the presence of 5% CO2 for 3-5 days until the cells reached confluence at 37° C. After exchange with Humedia-EG2 medium (Kurabo Industries, Ltd.) containing each sample added to the specified concentration or an added solvent dissolving each evaluation sample, culturing was continued for 2 days. The mRNA was extracted and purified from the cultured cells using an RNA extraction reagent MagNA Pure LC mRNA HS kit (Roche) and an automatic nucleic acid extraction apparatus MagNA Pure LC 1.0 Instrument (Roche), according to the manufacturer's protocol. For each sample, an equal volume of mRNA was used as template for one-step quantitative real time (RT)-PCR of the PDGF-B gene using primer pairs of SEQ ID NO: 1 and 2 listed below, the reaction reagent QuantiFast SYBR Green RT-PCR Kit (Qiagen) and a LightCycler reactor (Roche). The composition conditions were according to the protocol by Qiagen. […]

Row | Compound | PDGF-BB expression (vs. control)
1 | O[C@H]1[C@H](O)[C@@H](O)[C@H](O)[C@@H](O)[C@H]1O [Inositol, myo-inositol] | 1.37
2 | O=P(O)(O)O[C@H]1[C@H](OP(=O)(O)O)[C@@H](OP(=O)(O)O)[C@H](OP(=O)(O)O)[C@@H](OP(=O)(O)O)[C@H]1OP(=O)(O)O [Phytic acid, phytic acid] | 1.20
